Measurements reported in patent US20240101602A1, “ANTIMICROBIAL PEPTIDES AND METHOD OF PREVENTING OR TREATING INFECTION BY USING THE SAME” (priority 2020, published 2024).
In brackets after ≈: the same amount, converted by molar mass. Read-outs that look alike come from different tables or passages of the source. Residues, ends and D or L forms follow the SMILES beside them. *: point of attachment. Myristoyl = CCCCCCCCCCCCCC(=O)*

Legend:
[1] = test system: Candida albicans 12-99 (fluconazole-resistant)
[2] = test system: bacteria, fungal spores, and fungal mycelia; assay type: cell-based; settings: SYTOX Green, crude peptides, room temperature in dark for 2 h
Bc = experiment: In planta pathogen inoculation assay, lesion diameter; assay type: in vivo, Botrytis cinerea; settings: detached leaves of tomato L390 and leaves of Arabidopsis Col0; final peptide concentration 16 μg/mL; 47 to 70 hours post-inoculation
[3] = test system: Ralstonia solanacearum strain Pss4; settings: Rs Pss4; optimal minimal medium, crude peptides (Table 9)
Erwinia chrysanthemi = assay type: cell-based
Description: (§1) The effect of peptide length on the antimicrobial activity was investigated by deciding the minimal inhibitory concentration (MIC) and minimal bactericidal concentration (MBC) for each peptide against the pathogen with the media and growth conditions of phytopathogenic bacteria and E. coli as described in Table 1. Single bacterial colony grown on an optimal rich agar medium was picked, and each grew in 3 mL of the same rich liquid medium for 4 to 6 h. For experiments carried out in the rich medium, the bacterial broth culture was then diluted in the same medium to give a final concentration of OD600=0.08, and then further diluted 100 folds in the same medium. For experiments carried out in the minimal medium, the bacterial cells were collected from the bacterial liquid culture by centrifugation, re-suspended in an optimal minimal medium to give a final concentration of OD600=0.08, and then further diluted 100 folds in the same minimal medium. Fifty microliters of serially diluted peptides (2-fold the final concentration) were added in a 96-well polystyrene plate with 50 μL of the bacterial culture. […] The plates were incubated at an optimal temperature without shaking. […] MBC was determined as the lowest peptide concentration at which no colonies formed. The experiments were conducted in an optimal minimal medium for each pathogen. The media and growth conditions were described in Tables 2 and 3. MIC and MBC values were determined following the procedures described above. […] Fifty microliters of serially diluted peptides (2-fold the final concentration) were added in a 96-well polystyrene plate with 50 μL of the fungal spore suspension.

[4] = test system: Pectobacterium carotovorum subsp. carotovorum; assay type: cell-based
Description: as §1

[5] = test system: Ralstonia solanacearum strain Pss190; settings: Rs Pss190; optimal minimal medium, crude peptides (Table 9)
Cgl FST02 = assay type: cell-based, Colletotricum gloeosporioides
Description: (§2) The experiments were conducted in an optimal minimal medium for each pathogen. The media and growth conditions were described in Tables 2 and 3. MIC and MBC values were determined following the procedures described above. […] Fifty microliters of serially diluted peptides (2-fold the final concentration) were added in a 96-well polystyrene plate with 50 μL of the fungal spore suspension. […] The plates were incubated at an optimal temperature without shaking. […] MFC was determined as the lowest peptide concentration at which no fungal growth was observed.

[6] = test system: Candida albicans 89 (echinocandin-resistant)
Pcc = experiment: In planta pathogen inoculation assay, lesion diameter; assay type: in vivo, Pectobacterium carotovorum subsp. carotovorum; settings: detached leaves of tomato L390 and leaves of Arabidopsis Col0; final peptide concentration 16 μg/mL; 16 to 28 hours post-inoculation
Botrytis cinerea = assay type: cell-based
Description: as §2

[7] = test system: Xanthomonas euvesicatoria strain Xvt28; experiment: IC50 of bacterial growth (OD600) in rich liquid medium; assay type: cell-based; settings: Xev Xvt28, 24 h, purified peptides
Description: (§3) To measure the antimicrobial activity, single colony grown on an optimal rich agar medium for each bacterium was picked and grew in 3 mL of the same rich liquid medium for 4 to 6 h. The bacterial culture was then diluted in the same medium to give a final concentration of OD600=0.08 and then further diluted […] in the same medium. In each well of a 96-well polystyrene plate, 90 μL of the diluted culture was mixed with 10 μL of the peptide to give a peptide concentration of 0, 2, 10, and 20 μg/mL (final cell concentration is 5×10^5 CFU/mL). OD600 was measured after incubation at an optimal temperature for 24 h. IC50 was determined as the lowest peptide concentration inhibiting 50% of bacterial growth.

[8] = test system: Xanthomonas campestris pv. campestris strain Xcc17; experiment: as above; assay type: cell-based; settings: Xcc Xcc17, 24 h, purified peptides
Description: as §3

[9] = test system: Escherichia coli strain DH5a; settings: Eco DH5α; rich medium, 24 h, purified peptides
[10] = test system: Xanthomonas oryzae pv. oryzae strain Xoo28; settings: Xoo Xoo28; rich medium, 24 h, purified peptides
[11] = Circular dichroism spectroscopy, secondary structure deconvolution; settings: dissolved in water, structural deconvolution of CD spectra
[12] = test system: Agrobacterium tumefaciens strain Atu C58C1; settings: rich medium, 24 h, purified peptides
[13] = Candida albicans SC5314 (Tables 10, 14)

Compound	membranolytic effect on the cell walls of bacteria, fungal spores, and fungal mycelia [2]	disease lesions caused by Bc (Bc)	MBC/MFC [3] [µg/mL]	MIC [3] [µg/mL]	MBC/MFC (Erwinia chrysanthemi) [µg/mL]	MIC (Erwinia chrysanthemi) [µg/mL]	MBC/MFC [4] [µg/mL]	MIC [4] [µg/mL]	MBC/MFC [5] [µg/mL]	MIC [5] [µg/mL]	disease lesions caused by Pcc (Pcc)	MBC/MFC (Botrytis cinerea) [µg/mL]	further results
CCCCCCCCCCCCCC(=O)N[C@@H](Cc1c[nH]c2ccccc12)C(=O)N[C@@H](CCCCN)C(=O)N[C@@H](CCCCN)C(=O)N[C@@H](CC(C)C)C(=O)N[C@@H](CCCCN)C(=O)N[C@@H](CCCCN)C(=O)N[C@@H](CC(C)C)C(=O)N[C@@H](CC(C)C)C(=O)N[C@@H](CCCCN)C(=O)N[C@@H](CCCCN)C(=O)N[C@@H](CC(C)C)C(=O)N[C@@H](CCCCN)C(=O)N[C@@H](CCCCN)C(=O)N[C@@H](CC(C)C)C(N)=O [pepD2M] (Myristoyl-WKKLKKLLKKLKKL-NH2)	significant membranolytic effect	significantly reduced disease lesions	10.0 (≈ 4.99 µM)	8.0 (≈ 3.99 µM)	6.0 (≈ 2.99 µM)	4.0 (≈ 2 µM)	4.0 (≈ 2 µM)	4.0 (≈ 2 µM)	8.0 (≈ 3.99 µM)	8.0 (≈ 3.99 µM)	significantly reduced disease lesions	12.0 (≈ 5.99 µM)	MFC [1]: 64 µg/mL (≈ 31.9 µM); MIC [1]: 8 µg/mL (≈ 3.99 µM); MFC (Candida albicans SC5314; [13]): 64 µg/mL (≈ 31.9 µM); MIC (Candida albicans SC5314; [13]): 32 µg/mL (≈ 16 µM); MFC (Cgl FST02): 14.0 µg/mL (≈ 6.98 µM); MBC/MFC (Cgl FST02; Cgl FST02, optimal minimal medium, crude peptides (Table 9)): 16.0 µg/mL (≈ 7.98 µM); MFC [6]: 64 µg/mL (≈ 31.9 µM); MIC [6]: 32 µg/mL (≈ 16 µM); MFC (Botrytis cinerea): 18.7 µg/mL (≈ 9.33 µM)
CCCCCCCCCCCCCC(=O)N[C@@H](Cc1c[nH]c2ccccc12)C(=O)N[C@@H](CCCCN)C(=O)N[C@@H](CCCCN)C(=O)N[C@@H](CC(C)C)C(=O)N[C@@H](CCCCN)C(=O)N[C@@H](CCCCN)C(=O)N[C@@H](CC(C)C)C(=O)N[C@@H](CC(C)C)C(=O)N[C@@H](CCCCN)C(=O)N[C@@H](CCCCN)C(=O)N[C@@H](CC(C)C)C(N)=O [pepD3M] (Myristoyl-WKKLKKLLKKL-NH2)	significant membranolytic effect	significantly reduced disease lesions	12.0 (≈ 7.34 µM)	8.0 (≈ 4.89 µM)	6.0 (≈ 3.67 µM)	5.0 (≈ 3.06 µM)	4.0 (≈ 2.45 µM)	4.0 (≈ 2.45 µM)	14.0 (≈ 8.56 µM)	12.0 (≈ 7.34 µM)	significantly reduced disease lesions	6.0 (≈ 3.67 µM)	MBC/MFC (Cgl FST02): 14.0 µg/mL (≈ 8.56 µM); MIC (Cgl FST02): 14.0 µg/mL (≈ 8.56 µM); MIC (Botrytis cinerea): 5.3 µg/mL (≈ 3.24 µM)
WKLLKLLLKLLKLLLKLL [pepA]													MIC (Candida albicans SC5314; Candida albicans SC5314, 48 h at 35° C., 0.125 to 64 μg/mL (Table 5)): — (“—” indicates no antimicrobial activity being detected at the highest peptide concentration (64 μg/mL) tested.); IC50 [7]: — (“—” indicates no antimicrobial activity being detected at the highest peptide concentration (20 μg/mL) tested in this study.); IC50 [8]: — (“—” indicates no antimicrobial activity being detected at the highest peptide concentration (20 μg/mL) tested in this study.); IC50 [9]: — (“—” indicates no antimicrobial activity being detected at the highest peptide concentration (20 μg/mL) tested in this study.); IC50 [10]: — (“—” indicates no antimicrobial activity being detected at the highest peptide concentration (20 μg/mL) tested in this study.); α-helix content [11]: over 90%; IC50 [12]: — (“—” indicates no antimicrobial activity being detected at the highest peptide concentration (20 μg/mL) tested in this study.)
